# Source: PubChem BioAssay AID1963874 (Molecular Pharmacology Branch, DTP, NCI, 2024)
# Test system: 253994-281-T-J1-PDC KRAS-mutant spheroids with HUVEC/MSC, viability
# Assay: Anticancer human tumor 253994-281-T-J1-PDC patient-derived colorectal carcinoma cell line growth inhibition [KRAS2]
# Details: for IC50: curve of first compound; for viability, T/C: stronger effect = lower value
# How it was run: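 Combination screen of spheroid viability in tumor-cell co-cultures with endothelial (HUVEC) and mesenchymal stem cell stroma. Each agent was tested in half-log dilutions, topping at clinical Cmax or at 10 microM without a known Cmax.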
# [1] = second compound 0.1 µM, first compound 0.0316 µM
# [2] = second compound 0.1 µM, first compound 0.1 µM
# [3] = second compound 0.1 µM, first compound 0.316 µM
# [4] = second compound 0.1 µM, first compound 1 µM
# [5] = second compound 0.1 µM, first compound 3.16 µM
# [6] = second compound 0.1 µM, first compound 10 µM
# [7] = second compound 0.316 µM, first compound 0.0316 µM
# [8] = second compound 0.316 µM, first compound 0.1 µM
# [9] = second compound 0.316 µM, first compound 0.316 µM
# [10] = second compound 0.316 µM, first compound 1 µM
# [11] = second compound 0.316 µM, first compound 3.16 µM
# [12] = second compound 0.316 µM, first compound 10 µM
# [13] = second compound 1 µM, first compound 0.0316 µM
# [14] = second compound 1 µM, first compound 0.1 µM
# [15] = second compound 1 µM, first compound 0.316 µM
# [16] = second compound 1 µM, first compound 1 µM
# [17] = second compound 1 µM, first compound 3.16 µM
# [18] = second compound 1 µM, first compound 10 µM
# [19] = second compound 3.16 µM, first compound 0.0316 µM
# [20] = second compound 3.16 µM, first compound 0.1 µM
# [21] = second compound 3.16 µM, first compound 0.316 µM
# [22] = second compound 3.16 µM, first compound 1 µM
# [23] = second compound 3.16 µM, first compound 3.16 µM
# [24] = second compound 3.16 µM, first compound 10 µM
# [25] = second compound 10 µM, first compound 0.0316 µM
# [26] = second compound 10 µM, first compound 0.1 µM
# [27] = second compound 10 µM, first compound 0.316 µM
# [28] = second compound 10 µM, first compound 1 µM
# [29] = second compound 10 µM, first compound 3.16 µM
# [30] = second compound 10 µM, first compound 10 µM
# 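Further: spheroids exposed to agents for seven days before readout.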
# 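Wherever viability, T/C is given: percent of DMSO vehicle control viability.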
Structure (SMILES),IC50 (second compound 0.1 µM),IC50 (second compound 0.316 µM),IC50 (second compound 1 µM),IC50 (second compound 3.16 µM),IC50 (second compound 10 µM),"viability, T/C [1]","viability, T/C [2]","viability, T/C [3]","viability, T/C [4]","viability, T/C [5]","viability, T/C [6]","viability, T/C [7]","viability, T/C [8]","viability, T/C [9]","viability, T/C [10]","viability, T/C [11]","viability, T/C [12]","viability, T/C [13]","viability, T/C [14]","viability, T/C [15]",further results
COc1cc(Nc2ncc3c(n2)-c2ccc(Cl)cc2C(c2c(F)cccc2OC)=NC3)ccc1C(=O)O + CC1OCC2(CCN(c3cnc(Sc4ccnc(N)c4Cl)c(N)n3)CC2)C1N,< 0.0316 µM,< 0.0316 µM,< 0.0316 µM,< 0.0316 µM,< 0.0316 µM,51%,25.3%,24.6%,28.7%,40.4%,42.6%,34.6%,21.5%,22%,26%,25.8%,23.7%,23.4%,16.7%,17.7%,"viability, T/C [16]: 19.6%; viability, T/C [17]: 18.7%; viability, T/C [18]: 20.1%; viability, T/C [19]: 19.5%; viability, T/C [20]: 14.2%; viability, T/C [21]: 14.1%; viability, T/C [22]: 18.5%; viability, T/C [23]: 14.2%; viability, T/C [24]: 21%; viability, T/C [25]: 13.3%; viability, T/C [26]: 12.5%; viability, T/C [27]: 10.3%; viability, T/C [28]: 9.72%; viability, T/C [29]: 10.8%; viability, T/C [30]: 9.48%"
COc1cc2nccc(Oc3ccc(NC(=O)C4(C(=O)Nc5ccc(F)cc5)CC4)cc3)c2cc1OC + CC1OCC2(CCN(c3cnc(Sc4ccnc(N)c4Cl)c(N)n3)CC2)C1N,> 10 µM,8.23 µM,7.62 µM,4.84 µM,< 0.0316 µM,99%,106%,89.8%,74.9%,81.2%,65.1%,87.8%,105%,96.3%,83.3%,75.2%,45%,74%,83.1%,86.2%,"viability, T/C [16]: 84.9%; viability, T/C [17]: 77.5%; viability, T/C [18]: 41.4%; viability, T/C [19]: 58.5%; viability, T/C [20]: 64.8%; viability, T/C [21]: 70.4%; viability, T/C [22]: 64.7%; viability, T/C [23]: 65.6%; viability, T/C [24]: 24.9%; viability, T/C [25]: 29.6%; viability, T/C [26]: 36.2%; viability, T/C [27]: 50.5%; viability, T/C [28]: 41.5%; viability, T/C [29]: 39.9%; viability, T/C [30]: 14%"
